Here are results for 26 molecules from patent publication US7772425B2, “Vitamin D receptor modulators” (Eli Lilly and Company, priority 2002, dated 2010).

Where “and” joins values, the source holds several entries; their conditions need not be identical. Identical values can stand only once. Like-named read-outs stand apart in the source and are kept apart here. Bounds are passed on as bounds.

In data set [1] the test system is rat osteocalcin promoter. The data set can be described thus: OCN (osteocalcin) promoter assay in RG-15 (ROS 17/2.8) cells. The following applies: 48 hr treatment, luciferase. The format is cell-based. As to the method:
3. The OCN (Osteocalcin) Promoter Assay
The OCN Promoter Assay is an indicator and marker for osteoporosis. […] Preferred assay results are less than 50 nM.
(3) Materials and Method for The OCN Promoter Assay:
The activation of osteocalcin by VDR ligands was evaluated in a rat osteoblast-like cell line RG-15 (ROS 17/2.8) stably expressing rat osteocalcin promoter fused with luciferase reporter gene. […] Confluent RG-15 cells maintained in DMEM/F-12 medium (3:1) containing 5% FBS, 300 μg/ml G418 and at 37° C. under 5% CO2/95% air atmosphere were trypsinized (0.25% trypsin) and plated into white opaque 96-well cell culture plates (25000 cells/well). After 24 hr, cells (in DMEM/F-12 medium+2% FBS) were treated with various concentrations of compounds, dissolved in DMSO. The final DMSO concentration remained at 0.01% (v/v). After 48 hr treatment, the medium was removed, cells were lysed with 50 μl of lysis buffer (From Luciferase reporter assay system, Roche Diagnostics, Indianapolis, Ind.) and assayed for luciferase activity using the Luciferase Reporter Gene Assay kit from Boehringer Mannheim as per manufacturer's specifications.

In data set [2] the test system is KERtr cells (Human skin keratinocyte). Kind of data set: Keratinocyte proliferation assay. The format is cell-based. The settings on record: BrdU incorporation, read-out: Kera. Prolif. IC50. The protocol:
5. The Keratinocyte Proliferation Assay
This Assay is indicative for the treatment of psoriasis.
(5) The Keratinocyte Proliferation Assay:
KERtr cells (Human skin keratinocyte transformed with a retrovirus vector, obtained from ATCC) were plated in 96-well flat-bottomed plates (3000 cells/well) in 100 μl keratinocyte serum free medium supplemented with bovine pituitary extract in the absence of EGF (Life Technologies, Rockville, Md.) and incubated at 37° C. for two days. The cells were treated with various concentrations of VDR ligands (ten-fold serial dilution from 10,000 nM to 0.1 nM in triplicate), dissolved in 100 μl keratinocyte serum free medium supplemented with bovine pituitary extract in the absence of EGF and incubated at 37° C. for 72 hr. BrdU (5-bromo-2′-deoxyuridine) incorporation was analyzed as a measure of DNA replication (Cell proliferation ELISA kit, Roche Diagnostics, Indianapolis, Ind.) and absorbance was measured at 405 nm. Potency values (IC50) values were determined as the concentration (nM) of compound that elicited a half-maximal response.
For orientation: Incorporation of labelled thymidine or its analogues reports DNA synthesis.

For data set [3], the system named is female DBF mice. Kind of data set: Mouse hypercalcemia assay. The format is in vivo. The settings on record: orally via gavage for 6 days; serum ionized calcium 6 hours after last dosing. The text has this: 4. The Mouse Hypercalcemia Assay
(4) Materials and Method for The Mouse Hypercalcemia Assay: […]

The mark [4] stands for this setting: Homo sapiens, Keratinocyte, 72 h.

For orientation: EC50 means the concentration that produces a half-maximal response. As for `CCC(CC)(c1ccc(OCC(O)C(C)(C)C)c(C)c1)c1ccc(C(=O)OC)c(C)c1` (racemic) [Ex. 1, 3′-[4-(2-hydroxy-3,3-dimethylbutoxy)-3-methylphenyl]-3′-[4-methoxycarbonyl-3-methylphenyl]pentane], the EC50 in data set [1] (Rattus norvegicus, 48 h) came to 21 nM. A word on the IC50: it is the concentration that gives 50% inhibition. With `CCC(CC)(c1ccc(OC(C)C(O)C(C)(C)C)c(C)c1)c1ccc(C(=O)O)c(C)c1` (racemic) [Ex. 28, 4-{1-Ethyl-1-[4-(2-hydroxy-1,3,3-trimethyl-butoxy)-3-methyl-phenyl]-propyl}-2-methyl-benzoic acid], the EC50 amounted to 84 nM in data set [1] and 106 nM in data set [1] (Rattus norvegicus, 48 h). In addition, the IC50 in data set [2] (setting [4]) worked out at 240 nM. `CCC(CC)(c1ccc(C(=O)O)cc1)c1ccc(OCC(O)C(C)(C)C)c(Cl)c1` (racemic) [Ex. 35, 3′-[3-chloro-4-(2-hydroxy-3,3-dimethylbutoxy)phenyl]-3′-[4-carboxyphenyl]pentane]: the EC50 in data set [1] (Rattus norvegicus, 48 h) was determined as 27 nM. Also, the IC50 in data set [2] (setting [4]) came out at 40 nM. As to `CCC(CC)(c1ccc(C(=O)O)c(C)c1)c1ccc(OCC(O)C(C)(C)C)c(Cl)c1` (racemic) [Ex. 38, 3′-[3-chloro-4-(2-hydroxy-3,3-dimethylbutoxy)phenyl]-3′-[3-methyl-4-(carboxy)phenyl]pentane], the EC50 in data set [1] (Rattus norvegicus, 48 h) was 41 nM. `CCC(CC)(c1ccc(CCC(O)C(C)(C)C)c(C)c1)c1ccc(C(=O)O)c(C)c1` (racemic) [Ex. 55, 3′-[4-(3-hydroxy-4,4-dimethylpentyl)-3-methylphenyl]-3′-[4-carboxyl-3-methylphenyl]pentane]: the EC50 in data set [1] (Rattus norvegicus, 48 h) was 6 nM. Take `CCC(CC)(c1ccc(OCC(O)C(C)(C)C)c(C)c1)c1ccc(C(=O)O)c(C)c1` (single isomer, unassigned) [Ex. 3A]: the EC50 in data set [1] was 15 nM and 18 nM. For the same molecule, the “Mouse Hypercal” value in data set [3] is 1000 µg/kg/day.

Turning to `CCC(CC)(c1ccc(OCC(O)C(C)(C)C)c(C)c1)c1ccc(C(=O)O)c(C)c1` (single isomer, unassigned) [Ex. 3B], in data set [1], the EC50 was 57 nM and 83 nM. Moreover, the “Mouse Hypercal” value in data set [3] is 3000 µg/kg/day. In the case of `CCC(CC)(c1ccc(OCC(O)C(C)(C)C)c(C)c1)c1ccc(C(=O)OC)c(C)c1` (single isomer, unassigned) [Ex. 4A, 3′-[4-(2-hydroxy-3,3-dimethylbutoxy)-3-methylphenyl]-3′-[4-methoxycarbonyl-3-methylphenyl]pentane], the concentration giving a half-maximal response (EC50) in data set [1] came to 3 nM. Still for that read-out and setting: to `CCC(CC)(c1ccc(OCC(O)C(C)(C)C)c(C)c1)c1ccc(C(=O)OC)c(C)c1` (single isomer, unassigned) [Ex. 4B, 3′-[4-(2-hydroxy-3,3-dimethylbutoxy)-3-methylphenyl]-3′-[4-methoxycarbonyl-3-methylphenyl]pentane] belongs 15 nM.

Turning to `CCC(CC)(c1ccc(OC(C)C(O)C(C)(C)C)c(C)c1)c1ccc(C(=O)OC)c(C)c1` (single isomer, unassigned) [Ex. 10Da, 3′-[4-(2-hydroxy-1,3,3-trimethylbutoxy)-3-methylphenyl]-3′-[4-methoxycarbonyl-3-methylphenyl]pentane], the IC50 in data set [2] (setting [4]) turned out to be 1000 nM. Turning to `CCC(CC)(c1ccc(OC(C)C(O)C(C)(C)C)c(C)c1)c1ccc(C(=O)O)c(C)c1` (single isomer, unassigned) [Ex. 12], the EC50 in data set [1] was 20 nM and 25 nM. In addition, the “Mouse Hypercal” value in data set [3] was 4000 µg/kg/day. Take `CCC(CC)(c1ccc(OCC(O)C(C)(C)C)c(C)c1)c1ccc(C(=O)Nc2nnn[nH]2)c(C)c1` (single isomer, unassigned) [Ex. 12b, 3′-[4-(2-hydroxy-3,3-dimethylbutoxy)-3-methylphenyl]-3′-[4-(tetrazol-5-ylaminocarbonyl)-3-methylphenyl]pentane]: in data set [1], the EC50 is 13 nM and 23 nM. In addition, the “Mouse Hypercal” value in data set [3] is 300 µg/kg/day.

Consider `CCC(CC)(c1ccc(OCC(O)C(C)(C)C)c(C)c1)c1ccc(C(=O)NCCS(C)(=O)=O)c(C)c1` (single isomer, unassigned) [Ex. 15B, 4-{1-ethyl-1-[4-(2-hydroxy-3,3-dimethylbutoxy)-3-methylphenyl]propyl}-N-(2-methanesulfonylethyl)-2-methylbenzamide], for which the EC50 in data set [1] was 163 nM. Regarding `CCC(CC)(c1ccc(OCC(O)C(C)(C)C)c(C)c1)c1ccc(C(=O)Nc2nnn[nH]2)c(C)c1` (single isomer, unassigned) [Ex. 27, 3′-[4-(2-hydroxy-3,3-dimethylbutoxy)-3-methylphenyl]-3′-[4-(tetrazol-5-ylaminocarbonyl)-3-methylphenyl]pentane], the 50% effective concentration (EC50) in data set [1] is 13 nM and 23 nM. The “Mouse Hypercal” value in data set [3] is 300 µg/kg/day. For `CCC(CC)(c1ccc(OCC(O)C(C)(C)C)c(Cl)c1)c1ccc(C(=O)O)c(Cl)c1` (single isomer, unassigned) [Ex. 41, 3′-[3-chloro-4-(2-hydroxy-3,3-dimethyl-butoxy)phenyl]-3′-(3-chloro-4-carboxyphenyl)pentane], the EC50 in data set [1] was 421 nM.

As for `CCC(CC)(c1ccc(OCC(O)C(C)(C)C)c(Cl)c1)c1ccc(C(=O)O)c(Cl)c1` (single isomer, unassigned) [Ex. 42, 3′-[3-chloro-4-(2-hydroxy-3,3-dimethyl-butoxy)phenyl]-3′-(3-chloro-4-carboxyphenyl)pentane], in data set [2] (setting [4]), the IC50 is 50 nM.

In the case of `CCC(CC)(c1ccc(OC[C@@H](O)C(C)(C)C)c(C)c1)c1ccc(C(=O)NCCS(C)(=O)=O)c(C)c1` (stereo in doubt) [Ex. 14, 4-{1-ethyl-1-[4-(2-hydroxy-3,3-dimethylbutoxy)-3-methylphenyl]propyl}-N-(2-methanesulfonylethyl)-2-methylbenzamide], the EC50 in data set [1] (Rattus norvegicus, 48 h) was 306 nM. Moreover, the “Mouse Hypercal” value in data set [3] was 3000 µg/kg/day. Regarding `CCC(CC)(c1ccc(OC[C@@H](O)C(C)(C)C)c(C)c1)c1ccc(C(=O)NCC(=O)O)c(C)c1` (stereo in doubt) [Ex. 24, (4-{1-ethyl-1-[4-(2-hydroxy-3,3-dimethylbutoxy)-3-methylphenyl]-propyl}-2-methylbenzoylamino)acetic acid], the EC50 in data set [1] (Rattus norvegicus, 48 h) came out at 0.2 nM. On to `C=C1/C(=C\C=C2/CCC[C@]3(C)[C@@H]([C@H](C)CCCC(C)(C)O)CC[C@@H]23)C[C@@H](O)C[C@@H]1O` [AA, 1α,25-dihydroxyvitamin D3, reference compound], for which the “Mouse Hypercal” value in data set [3] is 0.06 µg/kg/day. Still for that read-out and setting: to `CCC(CC)(c1ccc(OCC(O)CO)c(C)c1)c1ccc(OCC(O)C(C)(C)C)c(C)c1` (stereo not shown) [BB, 3-(4-{1-Ethyl-1-[4-(2-hydroxy-3,3-dimethyl-butoxy)-3-methyl-phenyl]-propyl}-2-methyl-phenoxy)-propane-1,2-diol, reference compound] belongs 20 µg/kg/day. `Cc1cc(C2(c3ccc(OCC(=O)C(C)(C)C)c(C)c3)CCCCC2)ccc1OCC(=O)C(C)(C)C` [CC, 1-(4-{1-[4-(3,3-Dimethyl-2-oxo-butoxy)-3-methyl-phenyl]-cyclohexyl}-2-methyl-phenoxy)-3,3-dimethyl-butan-2-one, reference compound]: in data set [1] (Rattus norvegicus, 48 h), the EC50 was above 1000 nM. Consider `CCC(CC)(c1ccc(OCC(=O)C(C)(C)C)c(C)c1)c1ccc(OC[C@H](O)C(C)(C)C)c(C)c1` [EE, reference compound], for which the EC50 in data set [1] (Rattus norvegicus, 48 h) amounted to 341 nM. Further, the “Mouse Hypercal” value in data set [3] was 1000 µg/kg/day. `CCC(CC)(c1ccc(CNCCS(C)(=O)=O)c(C)c1)c1ccc(OCC(=O)C(C)(C)C)c(C)c1` [Ex. 13, 1-[4-(1-ethyl-1-{4-[(2-methanesulfonyl-ethylamino)-methyl]-3-methyl-phenyl}-propyl)-2-methyl-phenoxy]-3,3-dimethyl-butan-2-one]: the EC50 came out at 167 nM in data set [1] and 89 nM in data set [1] (Rattus norvegicus, 48 h). Further, the “Mouse Hypercal” value in data set [3] was 3000 µg/kg/day. On to `CCC(CC)(c1ccc(OCC(=O)C(C)(C)C)c(C)c1)c1ccc(C(=O)NCCS(C)(=O)=O)c(C)c1` [Ex. 16, 4-{1-[4-(3,3-dimethyl-2-oxobutoxy)-3-methylphenyl]-1-ethylpropyl}-N-(2-methanesulfonylethyl)-2-methylbenzamide], for which, in data set [1] (Rattus norvegicus, 48 h), the EC50 was 35 nM. Further, in data set [3], the “Mouse Hypercal” value is above 5000 µg/kg/day.

For `CCC(CC)(c1ccc(OC(C)C(O)C(C)(C)C)c(C)c1)c1ccc(C(=O)N[C@@H](C)C(=O)O)c(C)c1` (stereo partly shown) [Ex. 49, (L)-2-(4-{1-Ethyl-1-[4-(2-hydroxy-1,3,3-trimethyl-butoxy)-3-methyl-phenyl]-propyl}-2-methyl-benzoylamino)-propionic acid], in data set [2] (72 hr), the IC50 amounted to 1000 nM.

For the molecule `CCC(CC)(c1ccc(CCC(=O)C(C)(C)C)c(C)c1)c1ccc(C(=O)O)c(C)c1` [Ex. 54, 3′-[4-(3-oxo-4,4-dimethylpentyl)-3-methylphenyl]-3′-[4-carboxyl-3-methylphenyl]pentane], the EC50 in data set [1] (Rattus norvegicus, 48 h) came out at 119 nM. Also, the “Mouse Hypercal” value in data set [3] is above 3000 µg/kg/day.
